From patent US20090203707A1, “METHODS FOR TREATING PAIN” (priority 2008, published 2009)
“Also recorded” adds a separate entry of the source. Like-named read-outs stand apart in the source and are kept apart here.

Assays:
[1] = test system: endogenous TTX-S INa in ND7-23 cells; test: cells; format: cell-based, rat DRG/mouse neuroblastoma hybrid; conditions: V0, recorded in the absence of TTX
[2] = test system: CFA-induced thermal hyperalgesia; test: CFA-induced thermal hyperalgesia, paw withdrawal latency; format: in vivo, Male Sprague Dawley rats; conditions: day 3 after CFA
[3] = biological target: rNav1.8 Na+ channels in ND7-23 cells (Rattus norvegicus, UniProt Q62968); test: Whole-cell patch clamp, rNav1.8 INa in ND7-23 cells (Example 2); conditions: for Use-dependent block of rNav1.8 INa: 40 pulses of 10 msec to +50 mV; for Kd: estimated from shift of steady-state inactivation curve (Bean equation)
[4] = Solubility of Ranolazine in aqueous solutions versus pH; format: physicochemical
[5] = test system: CFA-induced mechanical allodynia; test: CFA-induced mechanical allodynia, electro-von Frey withdrawal threshold; format: in vivo, Male Sprague Dawley rats
[6] = biological target: hNav1.7+β1 subunits in HEK293 cells (Homo sapiens, UniProt Q15858); test: Whole-cell patch clamp, hNav1.7 INa in HEK293 cells (Example 2); conditions: for Kd: estimated from shift of steady-state inactivation curve (Bean equation); for IC50: IC50 value, block of Nav1.7 INa
[7] = biological target: SCN9A (Nav1.7) Na+ channel, α- and β1 subunits, in HEK293 cells (Homo sapiens, UniProt Q15858); test: Whole-cell patch clamp, Nav1.7 peak INa in HEK293 cells (Example 1); conditions: for Mean amplitude of Nav1.7 peak INa, fraction of control: −100 mV to 0 mV, 50 msec
[8] = test system: hNav1.7 and rNav1.8 Na+ channels; test: Rate of development of slow inactivation, stated for hNav1.7 and rNav1.8 together; format: cell-based; conditions: 30 μM
Description: The time dependence of development of inactivation of hNav1.7 (−20 mV, FIG. 7A, n=4-5 cells) and rNav1.8 (+20 mV, FIG. 7B, n=4-5 cells) INa in the absence (▪) and presence (□) of 30 μM ranolazine is shown in FIG. 7. For control conditions, the progressive decay of currents with increasing conditioning pulse duration reflects entry of channels into inactivated states. The development of slow inactivation of hNav1.7+β1 and rNav1.8 channels could be fit with double and triple exponential functions, respectively (see Table 6, control, Development of slow inactivation).
As shown previously, (Vijayaragavan et al (2001) J. Neurosci 21:7909-18) the onset of slow inactivation of Nav1.8 channels is rapid when compared to Nav1.7 channels (˜fourfold, see Table 6, control, τF=10.78 and 43.97 msec for Nav1.8 and Nav1.7 channels, respectively). […] The time constants for development of inactivation of hNav1.7 (n=4 cells) and rNav1.8 (n=5 cells) INa with a depolarizing prepulse to −40 mV (hNav1.7) or −20 mV (rNav1.8) in the absence and presence of 30 μM ranolazine are given in Table 6.

[9] = 10 μM, 10 sec prepulse, n=6 cells
[10] = 10 μM, 100 msec prepulse, n=4 cells
[11] = Dissociation constant for inactivated state (Kdi)
[12] = Dissociation constant for rested state (Kdr)
[13] = male, Sprague Dawley, rat, in vivo, po
[14] = 10 μM, 10 sec prepulse, n=4 cells
[15] = holding −100 mV to 0 mV, 0.1 Hz

Chain of rNav1.8 Na+ channels in ND7-23 cells (Q62968 whole entry): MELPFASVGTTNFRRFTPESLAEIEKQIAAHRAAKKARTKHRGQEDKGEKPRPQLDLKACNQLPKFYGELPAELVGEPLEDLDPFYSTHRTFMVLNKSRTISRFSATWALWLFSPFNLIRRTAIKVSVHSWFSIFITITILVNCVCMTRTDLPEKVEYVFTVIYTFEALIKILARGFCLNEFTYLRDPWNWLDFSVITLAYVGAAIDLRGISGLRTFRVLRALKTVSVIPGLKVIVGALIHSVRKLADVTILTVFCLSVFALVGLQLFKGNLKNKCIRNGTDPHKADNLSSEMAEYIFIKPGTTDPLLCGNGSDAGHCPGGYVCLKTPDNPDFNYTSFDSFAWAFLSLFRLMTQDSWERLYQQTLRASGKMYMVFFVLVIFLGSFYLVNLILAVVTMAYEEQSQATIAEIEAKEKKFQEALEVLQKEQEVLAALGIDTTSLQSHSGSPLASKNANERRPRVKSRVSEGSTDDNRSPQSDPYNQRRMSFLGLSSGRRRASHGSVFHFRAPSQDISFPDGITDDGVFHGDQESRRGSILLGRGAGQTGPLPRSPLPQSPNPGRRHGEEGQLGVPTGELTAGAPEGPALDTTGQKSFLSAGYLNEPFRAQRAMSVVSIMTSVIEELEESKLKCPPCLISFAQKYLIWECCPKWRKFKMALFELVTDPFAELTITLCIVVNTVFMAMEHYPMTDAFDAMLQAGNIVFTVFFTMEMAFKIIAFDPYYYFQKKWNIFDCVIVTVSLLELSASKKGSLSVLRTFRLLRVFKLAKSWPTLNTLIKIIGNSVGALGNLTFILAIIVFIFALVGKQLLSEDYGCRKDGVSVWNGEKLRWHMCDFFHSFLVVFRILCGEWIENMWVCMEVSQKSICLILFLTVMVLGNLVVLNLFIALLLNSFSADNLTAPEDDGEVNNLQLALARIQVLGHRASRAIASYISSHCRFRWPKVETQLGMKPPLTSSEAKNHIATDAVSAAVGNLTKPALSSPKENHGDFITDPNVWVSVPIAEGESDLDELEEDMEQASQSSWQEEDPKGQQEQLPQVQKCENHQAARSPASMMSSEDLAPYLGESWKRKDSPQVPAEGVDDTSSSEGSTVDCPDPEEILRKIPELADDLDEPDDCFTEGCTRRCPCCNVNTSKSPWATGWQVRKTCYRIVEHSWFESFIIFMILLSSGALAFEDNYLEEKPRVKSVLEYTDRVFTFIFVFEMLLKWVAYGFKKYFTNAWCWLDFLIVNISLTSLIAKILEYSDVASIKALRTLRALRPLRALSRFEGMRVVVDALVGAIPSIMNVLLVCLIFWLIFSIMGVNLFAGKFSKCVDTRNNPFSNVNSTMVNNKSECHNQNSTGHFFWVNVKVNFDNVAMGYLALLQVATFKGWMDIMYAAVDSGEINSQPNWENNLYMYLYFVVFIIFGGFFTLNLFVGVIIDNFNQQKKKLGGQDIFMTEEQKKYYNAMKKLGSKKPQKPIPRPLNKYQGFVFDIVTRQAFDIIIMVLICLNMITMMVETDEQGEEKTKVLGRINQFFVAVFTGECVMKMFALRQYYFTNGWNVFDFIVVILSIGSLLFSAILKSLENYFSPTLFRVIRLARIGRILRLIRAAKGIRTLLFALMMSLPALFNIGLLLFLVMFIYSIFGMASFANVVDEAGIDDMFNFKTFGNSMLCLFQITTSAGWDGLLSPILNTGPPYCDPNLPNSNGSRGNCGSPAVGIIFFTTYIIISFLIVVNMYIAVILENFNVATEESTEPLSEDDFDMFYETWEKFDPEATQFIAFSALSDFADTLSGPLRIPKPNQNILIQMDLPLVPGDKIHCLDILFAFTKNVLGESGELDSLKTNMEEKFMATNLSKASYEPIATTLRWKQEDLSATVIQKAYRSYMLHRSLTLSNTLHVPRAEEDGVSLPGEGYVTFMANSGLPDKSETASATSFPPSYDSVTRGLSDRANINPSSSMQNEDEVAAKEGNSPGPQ
Chain of hNav1.7+β1 subunits in HEK293 cells (Q15858 whole entry): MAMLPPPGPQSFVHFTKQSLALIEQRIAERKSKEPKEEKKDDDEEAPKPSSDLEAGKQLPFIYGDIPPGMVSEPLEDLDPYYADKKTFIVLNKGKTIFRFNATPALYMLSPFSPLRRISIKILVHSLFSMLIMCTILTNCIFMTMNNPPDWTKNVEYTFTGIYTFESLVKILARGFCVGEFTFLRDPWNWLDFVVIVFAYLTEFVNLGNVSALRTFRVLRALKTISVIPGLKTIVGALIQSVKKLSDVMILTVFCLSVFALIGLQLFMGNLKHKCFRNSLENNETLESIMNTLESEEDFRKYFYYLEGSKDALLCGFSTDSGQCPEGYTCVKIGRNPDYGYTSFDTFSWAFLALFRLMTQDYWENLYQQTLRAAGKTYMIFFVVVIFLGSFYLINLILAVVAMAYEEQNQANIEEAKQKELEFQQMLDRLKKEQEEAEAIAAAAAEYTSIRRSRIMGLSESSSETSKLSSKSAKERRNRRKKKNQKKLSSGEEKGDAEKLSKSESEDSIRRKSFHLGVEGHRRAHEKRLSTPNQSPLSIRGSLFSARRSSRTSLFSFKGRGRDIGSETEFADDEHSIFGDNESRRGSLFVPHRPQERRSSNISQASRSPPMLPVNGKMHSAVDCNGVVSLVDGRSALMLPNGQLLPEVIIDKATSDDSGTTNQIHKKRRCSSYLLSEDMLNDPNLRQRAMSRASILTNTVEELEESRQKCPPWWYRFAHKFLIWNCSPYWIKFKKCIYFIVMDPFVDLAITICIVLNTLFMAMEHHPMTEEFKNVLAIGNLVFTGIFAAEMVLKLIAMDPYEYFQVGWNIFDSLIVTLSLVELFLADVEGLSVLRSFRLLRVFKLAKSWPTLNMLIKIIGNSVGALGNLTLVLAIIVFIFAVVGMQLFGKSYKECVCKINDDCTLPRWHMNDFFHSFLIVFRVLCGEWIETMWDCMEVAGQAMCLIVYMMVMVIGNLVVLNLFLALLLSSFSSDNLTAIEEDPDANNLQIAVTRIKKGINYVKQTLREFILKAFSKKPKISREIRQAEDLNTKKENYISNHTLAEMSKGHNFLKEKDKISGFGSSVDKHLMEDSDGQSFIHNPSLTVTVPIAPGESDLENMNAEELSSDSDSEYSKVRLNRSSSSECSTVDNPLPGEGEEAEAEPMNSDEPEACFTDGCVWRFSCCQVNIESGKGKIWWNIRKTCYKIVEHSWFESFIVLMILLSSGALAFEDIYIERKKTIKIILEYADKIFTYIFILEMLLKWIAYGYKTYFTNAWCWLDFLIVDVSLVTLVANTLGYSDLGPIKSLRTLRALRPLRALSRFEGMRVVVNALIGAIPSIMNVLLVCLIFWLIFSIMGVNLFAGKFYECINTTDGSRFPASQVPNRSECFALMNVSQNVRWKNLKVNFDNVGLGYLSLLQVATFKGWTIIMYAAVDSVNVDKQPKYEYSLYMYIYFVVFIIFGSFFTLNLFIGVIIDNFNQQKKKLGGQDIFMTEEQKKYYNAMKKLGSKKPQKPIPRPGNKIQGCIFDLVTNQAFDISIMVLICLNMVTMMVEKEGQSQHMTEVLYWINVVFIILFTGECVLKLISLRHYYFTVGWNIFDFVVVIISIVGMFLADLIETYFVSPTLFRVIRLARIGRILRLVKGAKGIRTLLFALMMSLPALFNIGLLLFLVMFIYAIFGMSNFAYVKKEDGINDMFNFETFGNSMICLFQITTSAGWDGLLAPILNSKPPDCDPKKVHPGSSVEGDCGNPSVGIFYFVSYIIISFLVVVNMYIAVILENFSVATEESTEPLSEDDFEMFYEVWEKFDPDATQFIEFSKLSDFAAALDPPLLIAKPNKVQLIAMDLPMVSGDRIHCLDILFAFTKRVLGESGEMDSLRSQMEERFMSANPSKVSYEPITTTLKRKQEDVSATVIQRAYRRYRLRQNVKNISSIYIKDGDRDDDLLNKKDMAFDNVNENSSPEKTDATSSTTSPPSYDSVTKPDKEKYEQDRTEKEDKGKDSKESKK
Chain of hNav1.7+β1 subunits in HEK293 cells (Q07699 19-218 partner): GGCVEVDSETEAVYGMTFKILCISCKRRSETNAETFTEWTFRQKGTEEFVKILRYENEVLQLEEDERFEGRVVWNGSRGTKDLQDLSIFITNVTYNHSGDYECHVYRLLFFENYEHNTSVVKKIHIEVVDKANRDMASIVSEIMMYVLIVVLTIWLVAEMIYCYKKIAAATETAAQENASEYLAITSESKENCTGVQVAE
Chain of SCN9A (Nav1.7) Na+ channel, α- and β1 subunits, in HEK293 cells (Q15858 whole entry): as the sequence (Q15858 whole entry) above
Chain of SCN9A (Nav1.7) Na+ channel, α- and β1 subunits, in HEK293 cells (Q07699 19-218 partner): as the sequence (Q07699 19-218 partner) above

COc1ccccc1OCC(O)CN1CCN(CC(=O)Nc2c(C)cccc2C)CC1 (racemic) [Ranolazine, (±)-N-(2,6-dimethylphenyl)-4-[2-hydroxy-3-(2-methoxyphenoxy)-propyl]-1-piperazineacetamide]
IC50 ([1]; ND7/23, read-out: IC50 value, block of TTX-S INa): 9.05 ± 0.56 µM | Hill Coefficient, block of TTX-S INa [1]: [1.15 ± 0.08] | Effect on paw withdrawal from thermal stimulation ([2]; i.p. 10, 20, 50 mg/kg, 30 minutes after dosing): no significant effect on paw sensitivity was observed; also recorded: no significant effect of treatment on paw withdrawal from thermal stimulation | Effect on paw withdrawal from thermal stimulation ([2]; p.o. 20, 50, 100, 200 mg/kg, 1 hour after gavage): no significant effect of treatment on paw withdrawal from thermal stimulation | IC50 [3]: 21.5 ± 3.01 µM | Inactivation V1/2 (steady-state intermediate, 1 sec prepulse) ([3]; 1 μM): −42.75 ± 3.93 mV | Inactivation slope factor K (1 sec prepulse) ([3]; 1 μM): 7.38 ± 0.93 mV/e-fold | Inactivation V1/2 (steady-state intermediate, 1 sec prepulse) ([3]; 3 μM): −47.61 ± 4.56 mV | Inactivation slope factor K (1 sec prepulse) ([3]; 3 μM): 7.14 ± 0.61 mV/e-fold | Activation V1/2 ([3]; 10 μM): 4.71 ± 2.58 mV | Activation slope factor K ([3]; 10 μM): 8.55 ± 1.62 mV/e-fold | Inactivation V1/2 (steady-state intermediate, 1 sec prepulse) ([3]; 10 μM): −57.88 ± 5.73 mV | Inactivation slope factor K (1 sec prepulse) ([3]; 10 μM): 7.59 ± 0.79 mV/e-fold | V1/2 of steady-state slow inactivation [3, 9]: −54.57±3.69 | k of steady-state slow inactivation [3, 9]: 8.38±0.76 | V1/2 of steady-state fast inactivation [3, 10]: −40.66±3.23 | k of steady-state fast inactivation [3, 10]: 11.45±1.21 | Inactivation V1/2 (steady-state intermediate, 1 sec prepulse) ([3]; 30 μM): −59.52 ± 2.18 mV | Inactivation slope factor K (1 sec prepulse) ([3]; 30 μM): 7.59 ± 1.09 mV/e-fold | Use-dependent block of rNav1.8 INa ([3]; 30 μM, 1 Hz): 60.20±2.04% | Use-dependent block of rNav1.8 INa ([3]; 30 μM, 5 Hz): 67.96±4.68% | Use-dependent block of rNav1.8 INa ([3]; 30 μM, 10 Hz): 70.16±2.09% | Development of slow inactivation, AF ([3]; 30 μM, at +20 mV): 0.53 ± 0.07 | Development of slow inactivation, AI ([3]; 30 μM, at +20 mV): 0.25 ± 0.07 | Development of slow inactivation, AS ([3]; 30 μM, at +20 mV): 0.09 ± 0.02 | Development of slow inactivation, τF ([3]; 30 μM, at +20 mV): 5.59 ± 1.08 ms | Development of slow inactivation, τI ([3]; 30 μM, at +20 mV): 34.11 ± 14.14 ms | Development of slow inactivation, τS ([3]; 30 μM, at +20 mV): 703.24 ± 373.82 ms | Time constant of INa decay (single exponential) ([3]; 30 μM, at +20 mV, n=4 cells): 1.60 ± 0.04 ms | Development of slow inactivation, AF ([3]; 30 μM, at −20 mV): 0.52 ± 0.05 | Development of slow inactivation, AI ([3]; 30 μM, at −20 mV): 0.30 ± 0.06 | Development of slow inactivation, AS ([3]; 30 μM, at −20 mV): 0.18 ± 0.03 | Development of slow inactivation, τF ([3]; 30 μM, at −20 mV): 22.75 ± 2.31 ms | Development of slow inactivation, τI ([3]; 30 μM, at −20 mV): 98.08 ± 13.65 ms | Development of slow inactivation, τS ([3]; 30 μM, at −20 mV): 1203.00 ± 337.50 ms | Steady-state use-dependent block of rNav1.8 INa ([3]; 100 μM, 3, 5, 20 or 200 msec pulses to +50 mV, 5 Hz): 71.69±0.85% | Kd [3, 11]: 0.64 µM | Kd [3, 12]: 22.8 µM | IC50 ([3]; IC50 value, block of Nav1.8 INa, V0.5, holding potential −40 mV): 4.33 ± 0.52 µM | Hill Coefficient, block of Nav1.8 INa ([3]; V0, holding potential −100 mV): [0.90 ± 0.11] | Hill Coefficient, block of Nav1.8 INa ([3]; V0.5, holding potential −40 mV): [0.89 ± 0.09] | USP Solubility Class ([4]; Solution pH 4.81): Freely Soluble | USP Solubility Class ([4]; Solution pH 4.89): Soluble | USP Solubility Class ([4]; Solution pH 4.90): Soluble | USP Solubility Class ([4]; Solution pH 5.04): Soluble | USP Solubility Class ([4]; Solution pH 5.35): Sparingly Soluble | USP Solubility Class ([4]; Solution pH 5.82): Slightly soluble | USP Solubility Class ([4]; Solution pH 6.46): Slightly soluble | USP Solubility Class ([4]; Solution pH 6.73): Very slightly soluble | USP Solubility Class ([4]; Solution pH 7.08): Very slightly soluble | USP Solubility Class ([4]; Solution pH 7.59 (unbuffered water)): Very slightly soluble | USP Solubility Class ([4]; Solution pH 7.79): Very slightly soluble | USP Solubility Class ([4]; Solution pH 12.66): Very slightly soluble | Effect on mechanical allodynia (paw sensitivity to mechanical stimulation) ([5]; i.p. 10, 20, 50 mg/kg, 30 minutes after dosing, day 3 after CFA): clearly reduced paw sensitivity to mechanical stimulation in a dose-dependent fashion; also recorded: dose dependent reduction in mechanical allodynia | Dose at which maximum analgesic response was achieved ([5]; oral gavage, plateau to the analgesic response): 100 mg/kg | Analgesic effect at highest oral dose ([5]; p.o. 200 mg/kg): non-significant trend toward a reduction in analgesic effect | Effect on mechanical allodynia ([5]; p.o. 20, 50, 100, 200 mg/kg, 1 hour after gavage, day 3 after CFA): dose dependent reduction in mechanical allodynia | Optimum oral dosing for reduction of mechanical allodynia ([5]; p.o., no additional benefit at higher doses (FIG. 11 legend)): 50 mg/kg | Death (Male Sprague Dawley rats; doses of 100 mg/kg (i.p.)): 50% | Doses at which adverse effects were noted (Male Sprague Dawley rats; male, Sprague Dawley, rat, in vivo, ip): ≥ 100 mg/kg | Time of onset of adverse pulmonary event after drug administration (Male Sprague Dawley rats; [13]): approximately 1 hour | Time to resolution of adverse pulmonary effect after gavage (Male Sprague Dawley rats; [13]): ≤ 24 h | Adverse event (Male Sprague Dawley rats; rat, in vivo, po): respiratory strider | Inactivation V1/2 (steady-state intermediate, 1 sec prepulse) ([6]; 1 μM): −78.97 ± 3.09 mV | Inactivation slope factor k (1 sec prepulse) ([6]; 1 μM): 4.80 ± 0.21 mV/e-fold | Inactivation V1/2 (steady-state intermediate, 1 sec prepulse) ([6]; 3 μM): −84.44 ± 3.64 mV | Inactivation slope factor k (1 sec prepulse) ([6]; 3 μM): 4.76 ± 0.11 mV/e-fold | Activation V1/2 ([6]; 10 μM): −33.96 ± 2.06 mV | Activation slope factor k ([6]; 10 μM): 4.77 ± 0.32 mV/e-fold | Inactivation V1/2 (steady-state intermediate, 1 sec prepulse) ([6]; 10 μM): −86.99 ± 2.86 mV | Inactivation slope factor k (1 sec prepulse) ([6]; 10 μM): 4.56 ± 0.1 mV/e-fold | V1/2 of steady-state slow inactivation [6, 14]: −61.39±3.54 | k of steady-state slow inactivation [6, 14]: 14.22±2.14 | V1/2 of steady-state fast inactivation [6, 10]: −86.15±3.62 | k of steady-state fast inactivation [6, 10]: 7.55±0.82 | Inactivation V1/2 (steady-state intermediate, 1 sec prepulse) ([6]; 30 μM): −89.07 ± 5.41 mV | Inactivation slope factor k (1 sec prepulse) ([6]; 30 μM): 5.15 ± 0.31 mV/e-fold | Development of slow inactivation, AF ([6]; 30 μM, at −20 mV): 0.24 ± 0.02 | Development of slow inactivation, AS ([6]; 30 μM, at −20 mV): 0.56 ± 0.01 | Development of slow inactivation, τF ([6]; 30 μM, at −20 mV): 9.14 ± 2.49 ms | Development of slow inactivation, τS ([6]; 30 μM, at −20 mV): 1657.71 ± 180.23 ms | Time constant of INa decay (single exponential) ([6]; 30 μM, at −20 mV, n=4 cells): 0.68 ± 0.15 ms | Development of slow inactivation, AF ([6]; 30 μM, at −40 mV): 0.30 ± 0.02 | Development of slow inactivation, AS ([6]; 30 μM, at −40 mV): 0.67 ± 0.02 | Development of slow inactivation, τF ([6]; 30 μM, at −40 mV): 23.99 ± 2.92 ms | Development of slow inactivation, τS ([6]; 30 μM, at −40 mV): 1845.75 ± 129.03 ms | Kd [6, 11]: 0.47 µM | Kd [6, 12]: 12.1 µM | IC50 ([6]; V0, holding potential −120 mV): 10.4 ± 1.25 µM | IC50 ([6]; V0.5, holding potential −70 mV): 3.25 ± 0.17 µM | Hill Coefficient, block of Nav1.7 INa ([6]; V0, holding potential −120 mV): [0.84 ± 0.09] | Hill Coefficient, block of Nav1.7 INa ([6]; V0.5, holding potential −70 mV): [1.33 ± 0.08] | Mean amplitude of Nav1.7 peak INa, fraction of control ([7]; 1 μM, 0.1 Hz): 0.9114 | Mean amplitude of Nav1.7 peak INa, fraction of control ([7]; 3 μM, 0.1 Hz): 0.7275 | Mean amplitude of Nav1.7 peak INa, fraction of control ([7]; 10 μM, 0.1 Hz): 0.4692 | Mean amplitude of Nav1.7 peak INa, fraction of control ([7]; 30 μM, 0.1 Hz): 0.327 | Block of Nav1.7 peak INa at end of pulse train (pulse 40) ([7]; 100 μM, 40 pulses −100 to 0 mV, 2, 5, 20 or 200 msec, 5 Hz): ~82.72±0.71% | p of logistic fit (Hill coefficient nH) for block of Nav1.7 peak INa [7, 15]: 0.8368 | x0 of logistic fit (IC50) for block of Nav1.7 peak INa [7, 15]: 10.3585 μM | Rate of development of slow inactivation, faster than control ([8]; −20 mV (hNav1.7), +20 mV (rNav1.8)): 2-5 fold | Rate of development of slow inactivation, faster than control ([8]; −40 mV (hNav1.7), −20 mV (rNav1.8)): 4-10 fold
